Source: article PMC4045134, “Discovery of Triterpenoids as Reversible Inhibitors of α/β-hydrolase Domain Containing 12 (ABHD12)” (PLoS ONE, 2014)
Entries after “also recorded” stand apart in the source; their conditions may differ.

Legend:
Format in all cases: biochemical
ABHD12 = target: T1, ABHD12 (Mus musculus, UniProt Q99LR1); test: Competitive ABPP with TAMRA-FP in mouse brain membrane proteome; conditions: mouse brain membranes, 1 h inhibitor, 1 h probe
T1 construct: the sole serine hydrolase targeted by the triterpenoids in native brain membrane proteome; from tissue; host or cells: mouse whole-brain membranes
T1 sequence (Q99LR1 1-398): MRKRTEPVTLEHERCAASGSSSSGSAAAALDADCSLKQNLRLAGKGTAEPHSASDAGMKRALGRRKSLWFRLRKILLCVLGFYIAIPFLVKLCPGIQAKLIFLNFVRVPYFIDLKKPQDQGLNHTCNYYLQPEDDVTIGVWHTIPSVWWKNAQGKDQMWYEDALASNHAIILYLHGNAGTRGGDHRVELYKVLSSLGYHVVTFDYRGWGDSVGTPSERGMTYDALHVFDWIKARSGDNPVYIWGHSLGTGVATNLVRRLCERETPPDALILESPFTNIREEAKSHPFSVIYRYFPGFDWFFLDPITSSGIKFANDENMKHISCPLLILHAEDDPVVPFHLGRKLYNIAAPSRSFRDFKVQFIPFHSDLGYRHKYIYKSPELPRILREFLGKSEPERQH
Protocol: (§1) Competitive ABPP using HEK293 cell lysates and mouse brain membranes was conducted to visualize effects of selected triterpenoids on the binding of the active site serine-targeting fluorescent fluorophosphonate probe TAMRA-FP following outlines of previous protocols, [31]. Briefly, lysates (25 µg) of HEK293 cells with or without (Mock) hABHD12 overexpression or mouse wholebrain membranes (100 µg) were treated for 1 h with DMSO or the inhibitor, after which TAMRA-FP labelling was conducted for 5 min (lysates) or 1 hour (membranes) at RT (final probe concentration 2 µM). The reaction was quenched by addition of gel loading buffer (followed by boiling for 5 min in the case of lysates), after which 10 µg protein (10 µl) was loaded per lane and the proteins were resolved in 10% SDS-PAGE together with standards. TAMRA-FP labeling was visualized (λex 552; λem 575 nm) by a fluorescent reader (FLA-3000 laser fluorescence scanner, Fujifilm, Tokyo, Japan). The intensity of bands was quantified using ImageJ, a freely available image analysis software (http://rsbweb.nih.gov/ij/).
For ABPP experiments (Figure 6C) and cannabinoid receptor activity assays (Table S2), membranes prepared from brain tissue of 4-week-old male rodents were used. The animals were obtained from the National Laboratory Animal Centre, University of Eastern Finland. Approval for the harvesting of animal tissue was obtained from the local welfare officer of the University of Eastern Finland.

[1] = system: metabolic serine hydrolases; test: Competitive ABPP, other serine hydrolases of mouse brain membrane proteome
Protocol: as §1
For ABPP experiments (Figure 6C) and cannabinoid receptor activity assays (Table S2), membranes prepared from brain tissue of 4-week-old male rodents were used. The animals were obtained from the National Laboratory Animal Centre, University of Eastern Finland. […]

hCB2R = target: T2, hCB2R (Homo sapiens, UniProt P34972); test: [35S]GTPγS binding, CB2R agonist activity, hCB2R-CHO cell membranes; conditions: 10 µM
T2 construct: expressed in transfected cells; host or cells: CHO

hABHD12 = target: T3, hABHD12 (Homo sapiens, UniProt Q8N2K0); test: Fluorescent glycerol assay of 1-AG hydrolysis in hABHD12-HEK293 lysates; conditions: hABHD12-HEK293 lysates
T3 construct: expressed in transfected cells; host or cells: HEK293 (transient)
T3 sequence (Q8N2K0 1-398): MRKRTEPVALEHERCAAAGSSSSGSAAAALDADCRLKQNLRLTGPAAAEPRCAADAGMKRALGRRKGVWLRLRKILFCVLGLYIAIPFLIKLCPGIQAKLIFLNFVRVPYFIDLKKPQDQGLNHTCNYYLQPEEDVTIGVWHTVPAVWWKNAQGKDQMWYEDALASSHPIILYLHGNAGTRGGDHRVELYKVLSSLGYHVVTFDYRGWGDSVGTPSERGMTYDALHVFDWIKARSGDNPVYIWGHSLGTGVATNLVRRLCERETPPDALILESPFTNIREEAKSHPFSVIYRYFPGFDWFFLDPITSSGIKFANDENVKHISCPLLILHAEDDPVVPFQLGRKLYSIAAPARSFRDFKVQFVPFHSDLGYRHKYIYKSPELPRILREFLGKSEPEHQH

hFAAH = target: T4, hFAAH (Homo sapiens, UniProt O00519); test: FAAH activity, membranes of hFAAH overexpressing COS-7 cells, 3H-anandamide; conditions: read-out: hFAAH Remaining activity % control (mean (range)), n=2
T4 construct: expressed in transfected cells; host or cells: COS-7
T4 sequence (O00519 1-579): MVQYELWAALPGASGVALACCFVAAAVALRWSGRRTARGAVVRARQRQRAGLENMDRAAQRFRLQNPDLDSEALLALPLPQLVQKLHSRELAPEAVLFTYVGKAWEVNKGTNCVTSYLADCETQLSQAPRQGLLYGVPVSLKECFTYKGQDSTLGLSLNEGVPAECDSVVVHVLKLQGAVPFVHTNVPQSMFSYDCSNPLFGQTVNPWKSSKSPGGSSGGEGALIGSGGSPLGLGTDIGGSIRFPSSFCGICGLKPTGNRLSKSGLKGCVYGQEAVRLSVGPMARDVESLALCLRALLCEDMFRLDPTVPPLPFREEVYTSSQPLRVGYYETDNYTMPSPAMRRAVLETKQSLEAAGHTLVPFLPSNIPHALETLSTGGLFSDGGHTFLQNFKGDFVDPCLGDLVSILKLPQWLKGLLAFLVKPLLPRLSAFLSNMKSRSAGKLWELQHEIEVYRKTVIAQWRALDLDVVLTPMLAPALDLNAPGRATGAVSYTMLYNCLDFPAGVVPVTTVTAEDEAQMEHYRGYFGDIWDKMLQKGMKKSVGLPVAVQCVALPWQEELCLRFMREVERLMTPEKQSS
Protocol: (§2) Glycerol liberated from 1-AG hydrolysis was determined with a sensitive fluorescent assay using lysates of HEK293 cells with transient overexpression of hABHD12, hABHD6 or hMAGL, essentially as previously described. […] Fluorescence (λex 530; λem 590 nm) was monitored using a Tecan Infinite M200 plate reader (Tecan Group Ltd., Männedorf, Switzerland). Inhibitory activities of selected compounds towards FAAH were determined using membranes of hFAAH overexpressing COS-7 cells, essentially as previously described. The final incubation volume (100 µL) contained 1 µg of protein and the substrate concentration was 20 µM (10 nM of ^3H-anandamide having specific activity of 60 Ci/mmol and concentration of 1 mCi/mL).

hABHD6 = target: T5, hABHD6 (Homo sapiens, UniProt Q9BV23); test: Fluorescent glycerol assay in hABHD6-HEK293 lysates; conditions: 10 µM; NI = no inhibition at 10 µM; read-out: hABHD6 Remaining activity % control ± s.e.m (n=3)
T5 construct: expressed in transfected cells; host or cells: HEK293 (transient)
T5 sequence (Q9BV23 1-337): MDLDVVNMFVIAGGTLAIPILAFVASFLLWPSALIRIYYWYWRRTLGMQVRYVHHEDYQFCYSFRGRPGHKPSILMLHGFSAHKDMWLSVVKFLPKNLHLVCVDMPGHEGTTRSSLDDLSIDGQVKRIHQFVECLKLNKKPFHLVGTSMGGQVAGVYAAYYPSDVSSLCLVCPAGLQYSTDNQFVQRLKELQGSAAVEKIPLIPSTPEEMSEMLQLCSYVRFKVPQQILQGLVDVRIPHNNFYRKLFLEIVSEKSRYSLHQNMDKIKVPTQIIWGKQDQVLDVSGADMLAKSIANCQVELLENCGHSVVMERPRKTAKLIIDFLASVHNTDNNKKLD
Protocol: as §2

T2 sequence (P34972 whole entry): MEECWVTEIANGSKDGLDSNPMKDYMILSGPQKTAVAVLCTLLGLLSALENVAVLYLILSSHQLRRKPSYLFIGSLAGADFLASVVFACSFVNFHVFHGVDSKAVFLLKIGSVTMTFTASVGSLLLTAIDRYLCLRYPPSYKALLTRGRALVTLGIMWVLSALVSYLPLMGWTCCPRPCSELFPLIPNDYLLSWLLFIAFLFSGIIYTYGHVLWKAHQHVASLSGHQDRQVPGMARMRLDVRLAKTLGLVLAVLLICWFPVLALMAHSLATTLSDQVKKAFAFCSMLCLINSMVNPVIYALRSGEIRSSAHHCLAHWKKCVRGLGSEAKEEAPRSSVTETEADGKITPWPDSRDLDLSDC

Question: Which “TAMRA-FP probe labeling of ABHD12” value (ABHD12) does the source give for `CC1(C)CC[C@]2(C(=O)O)CC[C@]3(C)C(=CC[C@@H]4[C@@]5(C)C[C@@H](O)[C@H](O)C(C)(C)[C@@H]5CC[C@]43C)[C@@H]2C1` [Compound 8, Maslinic acid, reference compound] here?
Answer: Its value is “selectively inhibited probe labeling of ABHD12; also recorded: dose-dependently inhibit TAMRA-FP labeling of ABHD12 already at 20 µM”.

Question: And the “additional targets among the metabolic serine hydrolases” value [1]?
Answer: The value was “no additional targets are evident”.

Question: And the “CB2R agonist activity [35S]GTPγS binding % Basal (Mean (range), n=2)” value (hCB2R)?
Answer: Its value is 114 (104-123) % Basal.

Question: And the IC50 (hABHD12; three independent experiments, read-out: -logIC50±s.e.m. (converted))?
Answer: The IC50 was 1260 nM.

Question: And the Emax (hABHD12; read-out: max inhibition (converted))?
Answer: Its Emax is 89%.

Question: What about the remaining activity at 10 µM (hFAAH) of the same compound?
Answer: Its remaining activity at 10 µM is 83%.

Question: And the remaining activity at 10 µM (hABHD6)?
Answer: The remaining activity at 10 µM was > 100%.
